In US5506354A, “Imidazolylpiperazinyl steroids” (The Upjohn Company, priority 1992, dated 1996):
Counter-ions that a name gives are not always drawn.

Legend:
[1] = test system: conjugated diene formation; assay: Conjugated Diene Formation Assay (rat brain synaptosomes); format: biochemical; details: 100 μM (or less) of drug; active = inhibition by 50% or more
From the text: The formation of conjugated dienes as assayed by Braughler, J. Neurochem., 44, 1282 (1985), Bucher, Fund. Applied Tox., 3, 222 (1983) and Tein, Arch. Biochem. Biophy., 216, 142 (1982) is a standard pharmacological laboratory procedure useful for identifying compounds which inhibit lipid peroxidation. Since lipid peroxidation is involved in the pathophysiology of central nervous system trauma, compounds which inhibit conjugated diene formation are useful in treating the conditions listed below.
44, 1282 (1985). Synaptosomal suspension (10 μl) is added to 1 ml of physiological (normal) saline containing 1% Lubrol PX (Sigma Chemical Co. St. Louis, Mo.), 100 μM hydrogen peroxide and 100 μM (or less) of the drug to be tested prepared in either absolute ethanol or water depending upon solubility. The reaction is started by the rapid addition of 200 μM ferrous ammonium sulfate prepared in argon-purged water. The sample is rapidly mixed and the change in absorbence at 232 nm is followed in a Gifford Response Spectrophotometer equipped with a rapid sampler. Due to the rapidity of the reaction, rapid addition of the iron, rapid mixing and sampling are obligatory to the accuracy of the assay. For best results absorbence readings of one/sec should be started within 5 sec following the addition of iron. The initial linear rate of absorbence change during the first 30 sec of reaction are compared with the rate of a reaction containing all reagents except synaptosomes. The difference in rates is the rate of conjugated diene formation. Rates with drug are compared to rates obtained in the absence of drug and the % inhibition is calculated. A compound that inhibits conjugated diene formation by 50% or more is considered to be "active".

arachidonic acid = assay: Arachidonic Acid Antagonism Assay (AAAA), LD50 of sodium arachidonate; format: in vivo, Charles River male CF-1 mice
Method in brief: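 Male CF-1 mice (18–22 g) received test compound IV in 1.0% Tween-80/0.1% HCl. LD50 was derived by Spearman-Karber (log dose interval 0.05, N=6), and activity was defined as LD50 elevation outside the control's 95% confidence interval.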

mucous secretion = assay: Inhibition of mucous secretion assay of Johnson; details: for inhibition of mucous secretion (activity in words): induced mucous secretions; for preferred mucous inhibitors by the test results (in words): test results disclose
From the text: According to this procedure compounds which inhibit or block enhancement of induced mucous secretions when tested are considered to be "active".

angiogenesis = assay: Chick embryo assay of Folkman (inhibition of angiogenesis / tumor growth); format: in vivo; details: 50 μg/10 μl in the presence of heparin
Description: According to this procedure compounds which are considered to be "active" (i.e. antiangiogenic) give an avascular zone of 4 mm or greater in some embryos when tested at 50 μg/10 μl in the presence of 50 μg/10μ of heparin.

[2] = test system: AcylCoA:Cholesterol Acyltransferase (ACAT); assay: AcylCoA:Cholesterol Acyltransferase (ACAT) Inhibition Assay; format: cell-based; set-up: key to inhibition of ACAT (activity in words): compounds which inhibit ACAT activity equal to, or greater than, that of chloropromazine are considered "active"; details: for inhibition of ACAT (activity in words): preferred Fu5AH cells, compared with chloropromazine
From the text: ACAT esterifies arterial cholesterol which is a key reaction in the development of atherosclerosis. The procedure of Bell, Can. […] In the ACAT assay it is preferred to use Fu5AH cells, see Lipids 9, 526 (1974). According to this procedure, compounds which inhibit ACAT activity equal to, or greater than, that of chloropromazine are considered "active".

[3] = test system: serum and arterial cholesterol in quail fed an atherogenic diet; assay: Antiatherosclerosis Screen in Susceptible to Experimental Atherosclerosis (SEA) Japanese Quail; format: in vivo
Description: While not necessary, some minor modifications for extraction of cholesterol from the artery have been made. Time are as follows: frozen arteries are homogenized in hexane/isopropanol (3/2) and the volume adjusted with Triton 100 solution (1.5% in hexane/isopropanol) to 7 ml. After standing 12 hr at 20°-25°, the supernatant, obtained by low speed centrifugation is evaporated until dry and thru the residue is suspended in 0.5 ml of 5% Triton 100 in isopropanol. This suspension is incubated for 10 min at 45° to dissolve the material. This solution as well as the diluted serum samples are analyzed for cholesterol by standard clinical chemistry analyzer methods. According to the above procedure compounds which decrease serum or arterial cholesterol >30% are considered to be "active".

MDA formation = assay: Malonyldialdehyde (MDA) Formation Assay (rat brain synaptosomes); format: biochemical; details: 10 min at 37°, pH 7.0; active = 50% or more at 200 μM or less
Description: Since lipid peroxidation is involved in the pathophysiology of center nervous system trauma, compounds which inhibit MDA formation are useful in treating the conditions listed below.
While not necessary to determine MDA formation, the above assays have been modified as follows: rat brain synaptosomes are prepared as described in the Example about the conjugated diene assay, except that the final wash of the synaptosomes and final suspension are in physiological (normal) saline in which the pH has been adjusted to 7.0. The synaptosomes are incubated for 10 min at 37° in physiological (normal) saline pH 7.0 (total volume=100 ul) containing; 10 ul synaptosomal suspension, 10% DMSO plus or minus drug, 150 uM Fe^+++ and 50 uM Fe++. The incubation is started by the rapid addition of iron to the otherwise complete reaction. The iron solutions are prepared fresh as ferric chloride and ferrous ammonium sulfate in argon-purged water. Following the 10 min incubation, the reaction is stopped by the addition of 500 ul ice-cold 12% trichloroacetic acid prepared in 0.5N hydrochloric acid. Water (300 ul) is then added along with 100 ul of freshly prepared thiobarbituric acid (3.3% in 0.5N sodium hydroxide) and 10 ul of 5 mM desferrioxamine. The sample is then heated in a boiling water bath for 20 minutes. The samples are cooled and centrifuged for 15 minutes at 1500×g and the absorbence of the supernatant fraction is read at 532 nm. The % inhibition of MDA formation is calculated by dividing the absorbance of sample containing drug by the absorbence of samples incubated without drug. Reaction blanks are samples incubated in the absence of iron. A compound that inhibits MDA formation by 50% or more at a concentration of 200 μM or less is considered "active".

mouse head injury = assay: in vivo mouse head injury procedure of Hall (1 hr neurological recovery, grip test); details: statistically significant (p<0.05)
interleukin-1 = assay: Inhibition of interleukin-1 induced T cell proliferation; format: cell-based; details: active = greater than 30% at 10^-6 M
From the text: The inhibition of interleukin-1 induced T cell proliferation assay, Proc. Nat. […] Since people with arthritis make excess interleukin 1, compounds which inhibit the activity of interleukin 1 are useful in the treatment of arthritis. According to this procedure compounds which inhibit the activity of interleukin 1 greater that 30% at 10^-6 M are considered to be "active".

CS(=O)(=O)O.C[C@]12CCC(=O)C=C1CC[C@@H]1C2=CC[C@@]2(C)[C@H]1CC[C@]2(O)C(=O)CN1CCN(c2ccccn2)CC1 [Example 2, 17α-Hydroxy-21-[4-(2-pyridinyl)-1-piperazinyl]pregna-4,9(11)-diene-3,20-dione methanesulfonate]
inhibition of conjugated diene formation (activity in words) [1]: demonstrate such activity | arachidonic acid antagonism (activity in words) (arachidonic acid; test compound IV 15 min before sodium arachidonate, LD50 outside 95% confidence interval of control): demonstrate arachidonic acid antagonism | inhibition of mucous secretion (activity in words) (mucous secretion): demonstrate such activity | preferred mucous inhibitors by the test results (in words) (mucous secretion): preferred mucous inhibitors | % of Embryos with 4 mm or Greater Avascular Zone (angiogenesis): 85%

C[C@]12CCC(=O)C=C1CC[C@@H]1C2=CC[C@@]2(C)[C@H]1CC[C@]2(O)C(=O)CN1CCN(c2ccccn2)CC1.Cl [Example 3, 17α-Hydroxy-21-[4-(2-pyridinyl)-1-piperazinyl]pregna-4,9(11)-diene-3,20-dione hydrogen chloride salt]
inhibition of ACAT (activity in words) [2]: active | reduction of arterial cholesterol (in words) ([3]; artery): demonstrates reduction of serum and arterial cholesterol | reduction of serum cholesterol (in words) ([3]; serum): demonstrates reduction of serum and arterial cholesterol

CCN(CC)c1nc(N2CCCCC2)cc(N2CCN(CC(=O)[C@@]3(O)CC[C@H]4[C@@H]5CCC6=CC(=O)CC[C@]6(C)C5=CC[C@@]43C)CC2)n1.Cl.O [Example 17, 17α-Hydroxy-21-[4-[2-(diethylamino)-6-(1-piperidinyl)-4-pyrimidinyl]-1-piperazinyl]pregna-4,9(11)-diene-3,20-dione hydrochloride hydrate]
% of Control LD50 100 mg/kg (arachidonic acid; 100 mg/kg, test compound IV): 150% | inhibition of MDA formation (activity in words) (MDA formation): demonstrate such activity | % Inhibition of ACAT ([2]; 5 μg/ml): 32.2% | inhibition of ACAT (activity in words) [2]: active

CCN(CC)c1cc(N2CCN(CC(=O)[C@@]3(O)[C@H](C)C[C@H]4[C@@H]5CCC6=CC(=O)C=C[C@]6(C)C5=CC[C@@]43C)CC2)nc(N(CC)CC)n1.Cl.O [Example 18, 21-[4-[2,6-Bis(diethylamino)-4-pyrimidinyl]-1-piperazinyl]-17α-hydroxy-16α-methylpregna-1,4,9(11)-triene-3,20-dione hydrochloride hydrate]
inhibition of ACAT (activity in words) [2]: active | inhibition of mucous secretion (activity in words) (mucous secretion): demonstrate such activity

CCN(CC)c1cc(N2CCN(CC(=O)[C@H]3CC[C@H]4[C@@H]5CCC6=CC(=O)CC[C@]6(C)[C@H]5[C@H](O)C[C@]34C)CC2)nc(N(CC)CC)n1.Cl.Cl [Example 69, 21-[4-[2,6-bis(diethylamino)-4-pyrimidinyl]-1-piperazinyl]-11α-hydroxypregn-4-ene-3,20-dione dihydrochloride]
% Increase in 1 hr Post-Injury Grip Test Scores After 3 mg/kg (mouse head injury): 199.7%

CCN(CC)c1cc(N2CCN(CC(=O)[C@@]3(O)CC[C@H]4[C@@H]5CCC6=CC(=O)CC[C@]6(C)[C@H]5[C@H](O)C[C@@]43C)CC2)nc(N(CC)CC)n1.Cl.Cl [Example 70, 21-[4-[2,6-bis(diethylamino)4-pyrimidinyl]-1-piperazinyl]-11α,17α-dihydroxypregn-4-ene-3,20-dione dihydrochloride]
% Increase in 1 hr Post-Injury Grip Test Scores After 3 mg/kg (mouse head injury): 148.3%

CS(=O)(=O)O.CS(=O)(=O)O.C[C@@H]1C[C@H]2[C@@H]3CCC4=CC(=O)C=C[C@]4(C)C3=CC[C@]2(C)[C@H]1C(=O)CN1CCN(c2cc(N3CCCC3)nc(N3CCCC3)n2)CC1 [Example 83, 16α-Methyl-21-[4-(2,6-bis(1-pyrrolidinyl)-4-pyrimidinyl]-1-piperazinyl]pregna-1,4,9(11)-triene-3,20-dione dimethane-sulfonate]
inhibition of conjugated diene formation (activity in words) [1]: demonstrate such activity | inhibition of MDA formation (activity in words) (MDA formation): demonstrate such activity | inhibition of interleukin 1 (activity in words) (interleukin-1): demonstrate inhibition of interleukin 1 | inhibition of mucous secretion (activity in words) (mucous secretion): demonstrate such activity | preferred mucous inhibitors by the test results (in words) (mucous secretion): preferred mucous inhibitors | inhibition of angiogenesis (activity in words) (angiogenesis): demonstrate inhibition of angiogenesis

CS(=O)(=O)O.C[C@@H]1C[C@H]2[C@@H]3CCC4=CC(=O)C=C[C@]4(C)C3=CC[C@]2(C)[C@H]1C(=O)CN1CCN(c2cc(N3CCCC3)nc(N3CCCC3)n2)CC1.O [Example 109, 16α-Methyl-21-[4-[2,6-bis(1-pyrrolidinyl)-4-pyrimidinyl]-1-piperazinyl]-pregna-1,4,9(11)-triene-3,20-dione-monomethanesulfonate monohydrate]
% Increase in 1 hr Post-Injury Grip Test Scores After 3 mg/kg (mouse head injury): 184.4%

CCNc1cccnc1N1CCN(CC(=O)[C@H]2[C@H](C)C[C@H]3[C@@H]4CCC5=CC(=O)C=C[C@]5(C)C4=CC[C@@]32C)CC1 [Example 127, 21-[4-[3-(Ethylamino)-2-pyridinyl]piperazinyl]-16α-methylpregna-1,4,9(11)-triene-3,20-dione hydrochloride]
% Increase in 1 hr Post-Injury Grip Test Scores After 3 mg/kg (mouse head injury): 200.8%
